Assay results from patent US20070009571A1, “Novel haptotactic peptides” (Hadasit Medical Research Services & Development Ltd., priority 1998, published 2007).
Entries after “also recorded” stand apart in the source; their conditions may differ. No end group written: not given here.

Tests used:
[1] = test system: normal human skin fibroblasts (HF); assay: Haptotaxis assay: attachment of ligand-coated sepharose beads (SB) to cultured cells; assay type: cell-based; conditions: for % Binding of peptide-coated SB to normal cultured cells: percentage of SB-ligand attached to cells by day 4
Procedure: (§1) Peptides or fibrinogen were covalently bound to CNBr activated sepharose beads (SB) (Pharmacia, Piscataway, N.J.) using techniques previously used to bind albumin, fibrinogen and thrombin. Briefly, CNBr-activated sepharose 4B (Pharmacia) was washed with 1N HCl, and suspended in the coupling buffer (pH 8.3), following the protocol supplied by the manufacturer. The peptides were dialyzed against the coupling buffer to remove Tris. Peptides (1 mg) were not highly water soluble. The peptides were dissolved in 1 mL 70% ethanol or dimethylformamide, and were then mixed into the coupling buffer containing 1 mL CNBr-activated sepharose. The suspension was gently agitated overnight, then centrifuged 500×g to pack the beads. This procedure covalently binds more than 95% of proteins or peptides including fibrinogen or peptides-CαE (SEQ ID NO:3), Cβ (SEQ ID NO:1) and preCγ (SEQ ID NO:2) to the beads determined by Abs280 readings of the solutions.
(§2) The migratory/adhesion response of cells to proteins (such as fibrinogen) or peptides covalently bound to SB was measured as follows. Cells were grown in 6 or 12 well plates to near confluence or in suspension until they covered about ½ to ⅔ of the plate surface. At that point, about […] of a suspension containing 50% v/v SB coated with the test protein or peptide were added to the plate and dispersed by gentle shaking for 1 min. The plate was then returned to the incubator and examined at different times by inverted phase microscopy.
(§3) The SB (naked or ligand bound) sedimented onto the nearly confluent cell layer and occasionally made physical contact with cell membranes on the plate (ascribed to Brownian motion or micro-convection currents). […] Typically, 300 beads (but not less then 200) were counted in each well and the ratio of SB bound to the cells relative to total number SB could be calculated (SB bound/SB total). Counting the percentage of SB attached to the cell surface at different time intervals provided a quantitative assay of the kinetics of the attachment of coated beads to cells. Negative control with uncoated SB or positive controls with SB-fibrinogen were employed with at least 3 wells measured for each. The statistical error was calculated from the square root of the total counts.
(§4) The peptides of the present invention were synthesized and tested in cell culture systems as described above. Essentially, peptides were covalently attached to sepharose beads to form SB-Cα (SEQ ID NO:4), SB-Cβ (SEQ ID NO:1), SB-PreCγ (SEQ ID NO:2), SB-Cγ (SEQ ID NO:5) and SB-CαE (SEQ ID NO:3), respectively, as was fibrinogen to form SB-Fib. The SB-peptide combination was then incubated with cultured cells. […] The haptotactic potency of the peptides is summarized in Table 3 with the percentage of SB-Fib/peptide attached to cells (by day 4) given in columns 2-5 of Table 3.

[2] = test system: bovine aortic endothelial cells (EC, BAEC); assay: Haptotaxis assay: attachment of ligand-coated SB to cultured cells; assay type: cell-based; conditions: for % Binding of peptide-coated SB to normal cultured cells: percentage of SB-ligand attached to cells by day 4
Procedure: as §1, §2, §3, §4

[3] = test system: human ovarian carcinoma cells (OV-1063); assay: as above; assay type: cell-based; conditions: percentage of SB-ligand attached to cells by day 4
Procedure: as §1, §2, §3, §4

[4] = test system: murine mammary adenocarcinoma cells (EMT-6); assay: as above; assay type: cell-based; conditions: for % Binding of peptide-coated SB to normal cultured cells: percentage of SB-ligand attached to cells by day 4
Procedure: as §1, §2, §3, §4

[5] = test system: normal human keratinocytes; assay: as above; assay type: cell-based; conditions: Keratinocyte; percentage of SB-ligand attached to cells by day 4
Procedure: as §1, §2, §3, §4

[6] = test system: normal murine fibroblasts (MF); assay: as above; assay type: cell-based; conditions: for % Binding of peptide-coated SB to normal cultured cells: percentage of SB-ligand attached to cells by day 4
Procedure: as §1, §2, §3, §4

[7] = test system: porcine smooth muscle cells (SMC); assay: as above; assay type: cell-based; conditions: for % Binding of peptide-coated SB to normal cultured cells: percentage of SB-ligand attached to cells by day 4
Procedure: as §1, §2, §3, §4

tested cell lines = assay: Haptotaxis assay, statements over the tested cell lines; assay type: cell-based; conditions: ligands covalently bound to SB; for haptotactic response / cell binding to SB-ligand, in words: near confluent cell cultures
Procedure: as §1, §2, §3, §4

HF [8] = assay: Cell proliferation, MTS assay; assay type: cell-based, human; conditions: 0.4 nM-4 μM, 96 well plates
Procedure: Cell proliferation was evaluated by measuring cell density as a function of time by two different colorimetric assays. The MTS colorimetric assay (CellTitre 96 Aqueous Assay by Promega) is based on dehydrogenase conversion of MTS (methyl tetrazolium salt) by viable cells to […] (Ge M. Tang, G., Ryan. T. J. and Malik. A. B., “Fibrinogen degradation product fragment D induces endothelial cell detachment by activation of cell-mediated fibrinolysis”, J. Clin. Inves., 90:2508-2516 (1992)); the methylene blue (MB) assay is based on the staining of monolayer cells after their fixation, and reading the absorbence of the absorbed dye.
The MTS assay for viable cells was performed as follows: 30 μL of freshly prepared MTS/PMS were added to each well; following 2 hrs incubation at 37° C., the plates were placed on a computer driven microplate reader (Anthos HT-II, Salzburg, Austria), programmed to shake the plate for 1 minute before reading the optical density (OD) of the dye at 490 nm. The measurements were repeated following 4 and 6 hours of incubation.
Peptides (Cα (SEQ ID NO:4), […], PreCγ (SEQ ID NO:2) and CαE (SEQ ID NO:3)), up to 1 μg/mL or 100 μg/mL fibrinogen or thrombin (final concentrations) were added to the culture medium and cell numbers were assayed by day 3 using the MTS assay. The change in cell number was compared with that observed versus saline control. Of the 5 peptides tested at dosages up to 10 μg/mL (approximately equimolar to 1 μg/mL fibrinogen), none of the peptides exerted significant effect on cell proliferation (FIG. 7).

EC cells (BAEC) = assay: FACS analysis of binding of FITC-labeled peptides; assay type: cell-based, bovine; conditions: 10 μg/ml or 100 μg/ml, medium with 0.1% albumin
Procedure: (§5) EC and HF cell monolayers were washed and then incubated with trypsin-versene. Cells were then washed with growth medium and resuspended in medium with 0.1% albumin. FITC-labeled peptide-Cβ (SEQ ID NO:1) was incubated with 5×10^5 EC cells (10 μg/ml or 100 μg/ml) or with 2.5×10^5 HF cells (100 μg/ml) in medium with 0.1% albumin. FITC-labeled peptide-CαE (SEQ ID NO:3) and Cα (SEQ ID NO:4) (10 μg/ml) was incubated with 5×10^5 EC cells in medium with 0.1% albumin. Cells were then washed with PBS and 1% albumin. Cells were resuspended in PBS and 1% albumin and then filtered through a mesh for FACS analysis, in which the FITC tluorescence was measured for each cell.
(§6) The control is without FITC-labeled peptide (background fluorescence).
(§7) In competition experiments, cells were incubated with various concentrations of unlabeled Cβ (SEQ ID NO:1) for 15 mins, an aliquot of Cβ^FITC (4 mM) was added and the sample was subjected to FACS analysis. […] The Cβ^FITC (SEQ ID NO:1) uptake experiments best fitted a linear-quadratic curve-fit.

HF cells = assay: FACS analysis of binding of FITC-labeled peptides; assay type: cell-based, human; conditions: 100 μg/ml, medium with 0.1% albumin
Procedure: as §5, §6, §7

cells such as HF or BAEC = assay: FACS competition and uptake experiments with Cβ-FITC; assay type: cell-based; parameters: dose or concentration left out as unconfirmed; conditions: preincubation with unlabeled Cβ for 15 mins
Procedure: as §7

BAEC = assay: Chemotaxis, micro-Boyden chamber assay; assay type: cell-based, bovine; conditions: up to 40 μg/ml
Procedure: (§8) Chemotaxis was evaluated using 48-well plastic Microtaxis micro-Boyden chambers. Polycarbonate filters with pore size of 8 μm were coated with fibronectin for 2 hours at 37° C. Conditioned medium from 3T3 cells served as a positive control. Test solution (26 μl) containing the tested peptides or protein or medium with no additions that served as control were placed in the lower chamber, covered with the filter. 50 μl cell suspension was introduced to the upper chamber of each well. The number of cells/well varied in the range of 5,000-10,000 in different experiments. The device loaded with cells was incubated at 37° C. for 4-5 hours. The filter was then removed and the non-migrating cells on its upper part were carefully wiped off with a damp cotton swab. The filter was fixed in methanol and stained with Accustain (modified Wright stain solution Sigma Diagnostics: St. Lois, Mo.). Cells that crossed or were retained within the filter were counted microscopically at low magnification so that the viewing field corresponded to the whole area of each well. Each experimental variant was performed in duplicated or triplicates and the data from, three successful experiments were normalized to the values of the positive control and averaged.
The chemotactic response of BAEC to a soluble gradient of […], the most haptotactic of the peptides studied was as follows. The results can be seen in FIG. 6. […] A similar, though more moderate, chemotaxis response to Cβ (SEQ ID NO:1) was obtained with HF.

HF [9] = assay: Chemotaxis, micro-Boyden chamber assay; assay type: cell-based, human; conditions: compared with BAEC
Procedure: as §8
The chemotactic response of BAEC to a soluble gradient of Cα (SEQ ID NO:1), the most haptotactic of the peptides studied was as follows. […]

human fibroblasts = conditions: isolated constituent chains of fibrinogen; Gray et al. 1993; cited from earlier work

Molecule | % Binding of peptide-coated SB to normal cultured cells [1] [%] | cell binding / haptotactic response to SB-ligand, in words [2] | % Binding of peptide-coated SB to normal cultured cells [2] [%] | % Binding of peptide-coated SB to normal cultured cells [3] [%] | % Binding of peptide-coated SB to normal cultured cells [4] [%] | % Binding of peptide-coated SB to normal cultured cells [5] [%] | % Binding of peptide-coated SB to normal cultured cells [6] [%] | % Binding of peptide-coated SB to normal cultured cells [7] [%] | cell lines excepted from binding to SB-ligand (all other tested lines bound) (tested cell lines) | number of cell lines bound by SB-ligand out of 7 tested (tested cell lines) | haptotactic response / cell binding to SB-ligand, in words (tested cell lines) | also measured
SB-CαE: peptide-CαE (SEQ ID NO:3) covalently attached to sepharose beads (RGADYSLRAVRMKIRPLVTQ; also: attached to sepharose beads) | 52 | strong binding | 43 | 0 | 64 | 0 | 61 | 8 | with the exception of OV-1063, keratinocytes and cells derived from a leucocytic lineage | 5 | next most potent | cell binding to SB-ligand, in words [1]: strong binding; cell binding to SB-ligand, in words [4]: strong binding; cell binding to SB-ligand, in words [6]: strong binding; cell binding to SB-ligand, in words [7]: Weak attachment
KGSWYSMRKMSMKIRPFFPQQ (Equivalent to the c-terminus of fibrinogen beta-chain) [Cβ, haptotactic peptide homologous to the carboxy terminus of the fibrinogen β chain, β 441-461] |  | greatest haptotactic response |  |  |  |  |  |  |  |  | highly haptotactic; also recorded: significant haptotactic responses | proliferative response of HF (MTS proliferation assay) (HF [8]): none of these peptides stimulated or inhibited proliferation; binding/uptake of FITC-labeled peptide by FACS, in words (EC cells (BAEC)): higher than that of CαE; also recorded: clearly bound to cells; binding/uptake of FITC-labeled peptide by FACS, in words (HF cells): higher than that of CαE; effect of unlabeled peptide on uptake of Cβ-FITC (competition) (cells such as HF or BAEC): increased the level of total Cβ; chemotactic response relative to negative control of 1% BSA serum-free medium (BAEC; BAEC): 3 times; chemotactic response of BAEC, in words (BAEC; soluble gradient, conditioned medium = 100% chemotaxis): highly significant chemotaxis; chemotaxis response of HF, in words (HF [9]): more moderate
SB-Cβ: peptide-Cβ (SEQ ID NO:1) covalently attached to sepharose beads (KGSWYSMRKMSMKIRPFFPQQ; also: attached to sepharose beads) | 100 |  | 94 | 4 | 99 | 0 | 89 | 100 | with the exception of OV-1063, keratinocytes and cells derived from a leucocytic lineage | 5 | most potent | 
γ chain: isolated γ chain of fibrinogen (protein, UniProt P02679 27-453, looked up, Fibrinogen gamma chain, isolated γ chain of fibrinogen) Fibrinogen gamma chain: YVATRDNCCILDERFGSYCPTTCGIADFLSTYQTKVDKDLQSLEDILHQVENKTSEVKQLIKAIQLTYNPDESSKPNMIDAATLKSRKMLEEIMKYEASILTHDSSIRYLQEIYNSNNQKIVNLKEKVAQLEAQCQEPCKDTVQIHDITGKDCQDIANKGAKQSGLYFIKPLKANQQFLVYCEIDGSGNGWTVFQKRLDGSVDFKKNWIQYKEGFGHLSPTGTTEFWLGNEKIHLISTQSAIPYALRVELEDWNGRTSTADYAMFKVGPEADKYRLTYAYFAGGDAGDAFDGFDFGDDPSDKFFTSHNGMQFSTWDNDNDKFEGNCAEQDGSGWWMNKCHAGHLNGVYYQGGTYSKASTPNGYDNGIIWATWKTRWYSMKKTTMKIIPFNRLTIGEGQQHHLGGAKQVRPEHPAETEYDSLYPEDDL |  |  |  |  |  |  |  |  |  |  |  | stimulation of fibroblast proliferation above controls (human fibroblasts): no effect
